Laboratory results reported in PMC10685318, “Trans-cyclosulfamidate mannose-configured cyclitol allows isoform-dependent inhibition of GH47 α-D-mannosidases through a bump–hole strategy” (Chemical Science, 2023).

Key:
CkGH47 L310S [1] = biological target: T1, CkGH47 L310S (Caulobacter sp. K31, UniProt B0SWV2, L310S); assay: Inhibition constant (V0/Vi vs inhibitor, mannose detection kit) with the CkGH47 L310S mutant; assay type: biochemical, Caulobacter K31 strain
T1 sequence (B0SWV2 25-462 L310S): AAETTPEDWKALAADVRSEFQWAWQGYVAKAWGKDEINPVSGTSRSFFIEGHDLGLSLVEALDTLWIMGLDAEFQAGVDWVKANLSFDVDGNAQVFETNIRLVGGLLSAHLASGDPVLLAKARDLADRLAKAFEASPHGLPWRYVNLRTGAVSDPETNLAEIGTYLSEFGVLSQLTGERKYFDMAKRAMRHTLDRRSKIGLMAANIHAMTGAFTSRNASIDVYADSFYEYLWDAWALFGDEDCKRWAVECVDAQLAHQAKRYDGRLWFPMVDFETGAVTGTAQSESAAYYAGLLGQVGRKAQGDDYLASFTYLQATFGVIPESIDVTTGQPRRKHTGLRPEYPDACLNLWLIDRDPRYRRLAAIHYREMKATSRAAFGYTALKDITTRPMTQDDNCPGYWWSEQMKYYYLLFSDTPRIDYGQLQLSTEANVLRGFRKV
Protocol: Building on this kinetic assay, we obtained an inhibition constant by pre-incubation of the enzyme and 6 for 30 minutes and then following the same time-point procedure as for the Michaelis–Menten assay. […] Similarly, a dissociation constant of 970 nM was obtained using isothermal titration calorimetry (Fig. S6 ^†). To understand the interactions between 6 and CkGH47 L310S regarding the introduced hole, a crystal structure complex was obtained (statistics in Table S2 ^†). Trans-cyclic sulfamidate 6 binds similarly to other conformationally restricted GH47 inhibitors, with additional interactions between the sulfamidate and active site residues, for example, the nitrogen and oxygen, and D249 and R363 side chains. Additionally, the introduced serine residue is indeed now in a position to hydrogen bond to the oxygen of the sulfamidate with a distance of 3.1 Å.
(§1) Trans-Cyclosulfamidate Cyclitols Males et al.
(§2) 2.1 Biochemical and biological methods
(§3) To obtain Michaelis-Menten kinetics
(§4) Lastly, to achieve an inhibition constant, the
(§5) The gradient of the graph, V0/Vi
(§6) After taking each time point, the sample was heat denatured at 95 °C for 5 minutes. The reactions were conducted in triplicate and averaged. […]
(§7) microplate spectrophotometer (BioTek). The mannose detection kit (Megazyme) was used to detect […]
(§8) dehydrogenase, was monitored at 340 nm. The absorbance after hexokinase was added to the mixture […]

CkGH47 L310S [2] = biological target: T1, CkGH47 L310S; assay: Isothermal titration calorimetry; assay type: binding, Caulobacter K31 strain
From the text: as §1
Figure S6. Isothermal titration calorimetry binding thermodynamics between CkGH47 L310S and 6. A. raw data injection profile;
B. Titration curve. N = 1.01 ± 0.02 sites, ΔH = -7.39 ± 0.19 kcal mol-1.
Figure S7. Overlay of the human GH47 α-1,2-mannosidase structures highlighting the conserved active site. Crystal structure of ERManI is in orange (PDB ID: 1FMI); the remaining structures were predicted by Alphafold[5], in light blue is GMIB, in dark blue is GMIA, in purple is GMIC, in yellow is EDEM2, in red is EDEM3 and in pink is EDEM1. A. The crystal structure from this work of CkGH47 and 3 is in green. Residues annotated according to the numbering of CkGH47. B. The human GH47 enzymes are superposed minus the CkGH47 enzyme; the residues are annotated according to the numbering of HsERManI. […]
as §2, §3, §4, §5, §6, §7, §8
2.1.2 Isothermal titration calorimetry
MicroCal ITC200 calorimeter at 25 °C over 20 injections. The experiment was duplicated to obtain a […]
the MicroCal PEAK-ITC analysis software.
2.2 Crystallographic data collection and refinement of CkGH47
3′ and the reverse primer was 5′-[…]-3′. Protein production and purification was followed as described previously.[3]
Reference data in the form of a
Refinement of the model was conducted […]
conformation was conducted using […]. Details of the data collection and refinement statistics […]
Figures of the structure were produced by using CCP4mg.

[3] = isothermal titration calorimetry

Work on O=S1(=O)N[C@@H]2[C@@H](O)[C@@H](O)[C@H](O)[C@@H](CO)[C@H]2O1 [compound 6, 1,6-trans-manno-cyclosulfamidate] yielded a Ki (CkGH47 L310S [1]) of 574 nM, a Kd (CkGH47 L310S [2]) of 970 nM and an N (CkGH47 L310S [2]; [3]) of 1.01 ± 0.02 sites. For the same compound, the ΔH (CkGH47 L310S [2]; [3]) was -7.39 ± 0.19 kcal/mol.
